Experimental findings from patent US8716184B2, “Herbicidal composition comprising the hydrates of saflufenacil and glyphosate or glufosinate” (Bayer Cropscience AG, priority 2010, dated 2014) are described below.

What all share (format): in vivo
One assay deals with Digitaria sanguinalis. The experiment in a line: Herbicidal action on Digitaria sanguinalis (Table 1). As for the experimental part: (§1) The herbicidal efficacy of the active compounds or active compound mixtures was scored visually by comparing the treated pots (soil) with untreated controls. The damage and development of all above-ground plant parts was recorded. Scoring was done on a percentage scale (example values: 100% action=all plants dead or not emerged; 50% action=50% of the plants and green plant parts dead or not emerged; 0% action=no discernible action=like control plot). The score figures of in any case 2 repetitions (pots) were averaged.
(§2) When applying the combinations according to the invention, herbicidal effects are frequently observed on a harmful plant species which exceed the formal total of the effects of the herbicides present when these are applied by themselves. Alternatively, it is observed in some cases that a lower application rate is required for the herbicide combination in order to achieve the same effect on a harmful plant species in comparison with the individual products. […] When the data observed already exceed the formal total of the data in the experiments with individual applications, they likewise exceed the expected value according to Colby, which is calculated using the formula below and is likewise regarded as an indication of synergism (cf. S. R. Colby; in Weeds 15 (1967) pp. 20 to 22): E=A+B−(A·B/100)

For the next assay, the system named is Cirsium Arvense. The experiment in a line: Herbicidal action on Cirsium arvense (Table 2a). As for the experimental part: as §1, §2
Another assay has as its system Abutilon teophrastis. The experiment in a line: Herbicidal action, dicotyledonous weeds, Abutilon teophrastis (Table 2b). To be noted: applied at 2-3 leaf stage, scoring 28 days after application. As for the experimental part: as §1
(§3) Seeds or rhizome pieces of monocotyledonous and dicotyledonous weeds are placed in sandy loam in pots, covered with soil and grown in the greenhouse under good growth conditions (temperature, atmospheric humidity, water supply). Three weeks after sowing, the test plants are treated in the three-leaf stage with the compositions according to the invention. The compositions according to the invention, formulated as wettable powders or emulsion concentrates, are sprayed onto the green plant parts in various dosages using an application rate of 300 to 800 L of water/ha (converted). After the test plants have remained in the greenhouse under optimum growth conditions for about 3 to 4 weeks, the effect of the preparations is scored visually in comparison with untreated controls (scoring as in Example 1). […]

The subject of a further assay is Setaria faberii. The experiment in a line: Herbicidal action, monocotyledonous weeds, Setaria faberii (Table 2c). To be noted: applied at 1-2 leaf stage, scoring 28 days after application. As for the experimental part: as §1
as §3, with “Three weeks after sowing, the test plants are treated in the three-leaf stage with the compositions according to the invention.” left out, “1). The compositions according to the invention also have good herbicidal post-emergence action against a broad spectrum of economically important weed grasses and broad-leaf weeds.” for “1).”

The subject of the next assay is Setaria viridis. The experiment in a line: Herbicidal action, monocotyledonous weeds, Setaria viridis (Table 2c). To be noted: applied at 1-2 leaf stage, scoring 28 days after application. As for the experimental part:
as §1
as §3, with “Three weeks after sowing, the test plants are treated in the three-leaf stage with the compositions according to the invention.” left out, “1). The compositions according to the invention also have good herbicidal post-emergence action against a broad spectrum of economically important weed grasses and broad-leaf weeds.” for “1).”

The test system of the next assay is Euphorbia heterophylla. The assay is described as follows: Herbicidal action, dicotyledonous weeds, Euphorbia heterophylla (Table 2b). As to conditions: applied at 2-3 leaf stage, scoring 28 days after application. As for the experimental part:
as §1, §3

The subject of the next assay is Xanthium strumarium. The experiment in a line: Herbicidal action, dicotyledonous weeds, Xanthium strumarium (Table 2b). As to conditions: applied at 2-3 leaf stage, scoring 28 days after application. As for the experimental part:
as §1, §3

The test system of another assay is Bidens pinata. The experiment in a line: Herbicidal action on Bidens pinata (Table 3). As for the experimental part: as §1, §2

Turning to `CC(C)N(C)S(=O)(=O)NC(=O)c1cc(-n2c(=O)cc(C(F)(F)F)n(C)c2=O)c(F)cc1Cl` [Compound of the formula (I) (amorphous), 2-chloro-5-[3,6-dihydro-3-methyl-2,6-dioxo-4-(trifluoromethyl)-1-(2H)-pyrimidinyl]-4-fluoro-N-[[methyl-(1-methylethyl)amino]sulfonyl]benzamide], the “Herbicidal action [%] on Digitaria sanguinalis” value with Digitaria sanguinalis (dose 25 g AS/ha) is 0%. Further, the “Herbicidal action [%] Cirsium Arvense” value in the assay on Cirsium Arvense (dose 25 g AS/ha) came to 55%.
Turning to `CC(C)N(C)S(=O)(=O)NC(=O)c1cc(-n2c(=O)cc(C(F)(F)F)n(C)c2=O)c(F)cc1Cl` [Hydrate of the compound of the formula (I) = (Ba)] [2-chloro-5-[3,6-dihydro-3-methyl-2,6-dioxo-4-(trifluoromethyl)-1-(2H)-pyrimidinyl]-4-fluoro-N-[[methyl-(1-methylethyl)amino]sulfonyl]benzamide], the “Herbicidal action [%] on Digitaria sanguinalis” value with Digitaria sanguinalis (dose 25 g AS/ha) was 0%. Also, the “Herbicidal action [%] Abutilon teophrastis” value in the assay with Abutilon teophrastis (dose 6.25 g AS/ha) is 75%. Further, the “Herbicidal action [%] Setaria faberii” value in the assay with Setaria faberii (dose 6.25 g AS/ha) is listed as 30%. For the same compound, the “Herbicidal action [%] Cirsium Arvense” value in the assay with Cirsium Arvense (dose 25 g AS/ha) is listed as 45%. In addition, the “Herbicidal action [%] Setaria viridis” value in the assay with Setaria viridis (dose 6.25 g AS/ha) stood at 25%. The “Herbicidal action [%] Euphorbia heterophylla” value in the assay on Euphorbia heterophylla (dose 6.25 g AS/ha) is recorded as 30%. Also, the “Herbicidal action [%] Xanthium strumarium” value in the assay with Xanthium strumarium (dose 6.25 g AS/ha) was determined as 30%. In addition, the “Herbicidal action [%] Bidens pinata” value in the assay on Bidens pinata (dose 6.25 g AS/ha) stood at 40%.
As for `CC(C)N.O=C(O)CNCP(=O)(O)O` [Glyphosate-isopropylammonium (A1b), glyphosate-isopropylammonium], the “Herbicidal action [%] Abutilon teophrastis” value with Abutilon teophrastis (dose 100 g AS/ha) is reported as 10%. For the same compound, the “Herbicidal action [%] Setaria faberii” value in the assay on Setaria faberii (dose 100 g AS/ha) is given as 10%. The “Herbicidal action [%] Cirsium Arvense” value in the assay on Cirsium Arvense (dose 675 g AS/ha) is on record as 25%. The “Herbicidal action [%] Setaria viridis” value in the assay on Setaria viridis (dose 100 g AS/ha) is 20%. Besides, the “Herbicidal action [%] Euphorbia heterophylla” value in the assay on Euphorbia heterophylla (dose 100 g AS/ha) was found to be 10%. Moreover, in the assay on Xanthium strumarium (dose 100 g AS/ha), the “Herbicidal action [%] Xanthium strumarium” value amounted to 10%. For the same compound, the “Herbicidal action [%] Bidens pinata” value in the assay on Bidens pinata (dose 100 g AS/ha) worked out at 10%.
Turning to `COCc1cnc(C2=NC(C)(C(C)C)C(=O)N2)c(C(=O)O)c1` (centres unmarked) [Imazamox (C18), imazamox], the “Herbicidal action [%] Bidens pinata” value in the assay with Bidens pinata (dose 0.5 g AS/ha) was 0%; with Bidens pinata (dose 0.5 g AS/ha, listed as imazamox (C18)), “no herbicidal action”.
Consider `CP(=O)(O)CCC(N)C(=O)O` (centres unmarked) [Glufosinate-ammonium (A2a), glufosinate-ammonium], for which the “Herbicidal action [%] on Digitaria sanguinalis” value in the assay with Digitaria sanguinalis (dose 450 g AS/ha) was determined as 15%.
